Values quoted from earlier work, collected in patent US10172867B2, “Afobazole nanoparticles formulation for enhanced therapeutics” (University of South Florida, priority 2014, dated 2019).

Experiments:
[1] = system: muscarinic receptors; conditions: Seredenin et al., 2009
[2] = in vivo
[3] = system: in vitro ischemia model; conditions: Cuevas et al.
[4] = biological target: σ-2 receptor (Homo sapiens, UniProt Q5BJF2); conditions: Cuevas et al., 2011
[5] = system: σ-1 receptor; conditions: Cuevas et al., 2011

Sequence of σ-2 receptor (Q5BJF2 whole entry, species assumed): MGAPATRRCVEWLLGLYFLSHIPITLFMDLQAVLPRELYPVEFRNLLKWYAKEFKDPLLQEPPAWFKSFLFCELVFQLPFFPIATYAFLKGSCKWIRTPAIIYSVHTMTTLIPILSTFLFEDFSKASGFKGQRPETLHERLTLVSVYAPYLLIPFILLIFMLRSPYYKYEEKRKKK

In the case of `CCOc1ccc2nc(SCCN3CCOCC3)[nH]c2c1` [Afobazole, 5-ethoxy-2[2-(morpholine)-ethylthio]benzimidazole], the “interaction with muscarinic receptors” value [1] is listed as “does not interact”, the brain penetration [2] is listed as “limited brain penetration” and the half-life [2] is listed as “short half-life”. For the same compound, the neuroprotection ([3]; in vitro ischemia model, 2011) was “provides neuroprotection”, the “ischemia-induced Ca2+ overload” value ([3]; via activation of σ-1 receptors, Katnik et al., 2006, 2011a) was “decrease in ischemia-induced Ca^2+ overload” and the σ-2 receptor activity [4] was “agonist”. For the same compound, the σ-1 receptor activity [5] was “agonist”.
